Test: xn = mol fraction of the nth substance listed
Details: 298.15 K, 92.3 kPa, Liquid; for viscosity: Concentric cylinders viscometry; for speed of sound: Frequency=3 MHz, Single path-length method; for mass density: Vibrating tube method

OCCOCCOCCO [triethylene glycol] + O
Details | mass density [kg/m3] | speed of sound [m/s] | viscosity [mPa·s]
x1 = 0.0101 | 1008.38 | 1537.4 | –
x1 = 0.0196 | 1017.88 | 1571 | –
x1 = 0.025 | 1023.1 | – | 1.524
x1 = 0.029 | 1027.04 | 1600.5 | –
x1 = 0.0381 | 1034.7 | 1625 | –
x1 = 0.0489 | 1042.58 | – | 2.329
x1 = 0.0496 | 1043.48 | 1651.4 | –
x1 = 0.0601 | 1050.7 | 1671.4 | –
x1 = 0.0689 | 1056.05 | 1685.1 | –
x1 = 0.0754 | 1059.51 | – | 3.456
x1 = 0.0801 | 1062.2 | 1699.4 | –
x1 = 0.0905 | 1067.29 | 1709.8 | –
x1 = 0.0993 | 1071.33 | – | 4.677
x1 = 0.0996 | 1071.33 | 1716.9 | –
x1 = 0.1479 | 1087.21 | 1733.4 | –
x1 = 0.15 | 1088.51 | – | 7.813
x1 = 0.1993 | 1098.18 | – | 11.2
x1 = 0.2004 | 1097.63 | 1729.3 | –
x1 = 0.2462 | 1103.39 | 1718.8 | –
x1 = 0.2526 | 1104.19 | – | 14.94
x1 = 0.2998 | 1107.47 | – | 18.09
x1 = 0.3004 | 1107.79 | 1704.4 | –
x1 = 0.3474 | 1110.41 | 1692.1 | –
x1 = 0.3539 | 1110.13 | – | 21.31
x1 = 0.3948 | 1112.33 | 1680.7 | –
x1 = 0.4009 | 1112.01 | – | 23.85
x1 = 0.4467 | 1113.88 | 1669.6 | –
x1 = 0.4492 | 1113.7 | – | 26.05
x1 = 0.4992 | 1115.2 | – | 28.01
x1 = 0.5021 | 1115.13 | 1659.2 | –
x1 = 0.548 | 1115.93 | 1651.9 | –
x1 = 0.5484 | 1116.36 | – | 29.68
x1 = 0.5923 | 1116.59 | 1645.4 | –
x1 = 0.5996 | 1117.17 | – | 31.06
x1 = 0.6442 | 1117.19 | 1639.1 | –
x1 = 0.6506 | 1117.6 | – | 32.21
x1 = 0.701 | 1117.76 | – | 33.32
x1 = 0.7095 | 1117.81 | 1632.3 | –
x1 = 0.7531 | 1118.17 | 1628.1 | –
x1 = 0.7567 | 1117.85 | – | 34.32
x1 = 0.7859 | 1118.42 | 1625.3 | –
x1 = 0.8035 | 1118.05 | – | 34.99
x1 = 0.8387 | 1118.75 | 1621.5 | –
x1 = 0.8406 | 1118.38 | – | 35.51
x1 = 0.8981 | 1119.14 | – | 35.95
x1 = 0.9031 | 1119.13 | 1617 | –
x1 = 0.9181 | 1119.2 | 1616.2 | –
x1 = 0.9344 | 1119.28 | 1615.4 | –
x1 = 0.9489 | 1119.68 | – | 36.46
x1 = 0.9569 | 1119.39 | 1614.1 | –
x1 = 0.9782 | 1119.48 | 1612.9 | –
x1 = 1 | 1119.59 | 1611.6 | 36.88

Source: the NIST ThermoML archive (doi:10.1016/j.jct.2018.02.022)
